Experimental data reported in US12692261B2, “Substituted heterocyclic compounds and therapeutic uses thereof” (Bayer Aktiengesellschaft, priority 2020, dated 2026).
Read-outs that look alike come from different tables or passages of the source.

Columns and labels:
[1] = target: T1, full-length human CSNK1A1 (Homo sapiens, UniProt P48729); assay: CSNK1A1 High ATP Assay (ADP-Glo, 1 mM ATP); assay type: biochemical; conditions: Table 3, read-out: CSNK1A1 high ATP assay IC50 [mol/l] (median);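 also: 30 min kinase reaction at 22 °C with 100 µM peptide substrate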
T1 construct: N-terminal Glutathion-S-Transferase (GST) and full-length human CSNK1A1; purchased Life Technologies PV4174; host or cells: baculovirus infected insect cells
T1 sequence (P48729 whole entry): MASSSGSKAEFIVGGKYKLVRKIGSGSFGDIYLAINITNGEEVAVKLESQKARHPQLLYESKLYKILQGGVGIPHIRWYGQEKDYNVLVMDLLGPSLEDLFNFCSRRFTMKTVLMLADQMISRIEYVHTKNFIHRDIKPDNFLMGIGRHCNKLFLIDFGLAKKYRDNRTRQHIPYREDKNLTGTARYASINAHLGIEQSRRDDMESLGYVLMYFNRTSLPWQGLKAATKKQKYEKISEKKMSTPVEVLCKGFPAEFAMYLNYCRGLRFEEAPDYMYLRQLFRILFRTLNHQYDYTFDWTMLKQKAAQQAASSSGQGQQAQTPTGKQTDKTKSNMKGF
Summary of the method: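 GST-tagged full-length human CSNK1A1 from baculovirus-infected insect cells (typically about 0.4 ng/μL), pre-incubated with compound 15 min at 22 °C. Reaction with biotinylated peptide biotin-Ahx-KRRRAL-pS-VASLPGL at 1 mM ATP. ADP formed read by ADP-Glo luminescence.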

[2] = target: T2, wild-type Epidermal Growth Factor Receptor (EGFR) (Homo sapiens, UniProt P00533); assay: WT-EGFR Kinase Assay (TR-FRET, 2 mM ATP); assay type: biochemical
T2 construct: a fragment of human EGFR (amino acids R669 to A1210); made in house; host or cells: Sf9 insect cells
T2 sequence (P00533 669-1210): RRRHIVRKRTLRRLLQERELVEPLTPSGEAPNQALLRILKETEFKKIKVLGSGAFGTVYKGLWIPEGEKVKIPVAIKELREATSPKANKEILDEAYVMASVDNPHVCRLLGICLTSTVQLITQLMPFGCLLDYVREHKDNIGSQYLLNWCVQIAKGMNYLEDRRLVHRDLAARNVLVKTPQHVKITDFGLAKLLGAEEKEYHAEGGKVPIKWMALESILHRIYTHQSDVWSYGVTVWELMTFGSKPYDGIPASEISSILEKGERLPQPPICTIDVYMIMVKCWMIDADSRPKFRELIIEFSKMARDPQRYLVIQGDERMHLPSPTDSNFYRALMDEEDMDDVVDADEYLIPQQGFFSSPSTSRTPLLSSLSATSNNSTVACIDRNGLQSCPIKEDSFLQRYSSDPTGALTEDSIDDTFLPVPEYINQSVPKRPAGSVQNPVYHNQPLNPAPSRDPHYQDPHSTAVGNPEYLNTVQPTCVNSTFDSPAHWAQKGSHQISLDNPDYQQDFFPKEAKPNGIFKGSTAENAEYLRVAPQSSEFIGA
From the text: Inhibitory activity of compounds of the present invention against wild-type Epidermal Growth Factor Receptor (EGFR) was quantified employing the TR-FRET based EGFR assay as described in the following paragraphs.
Recombinant fusion protein of N-terminal Glutathion-S-Transferase (GST) and a fragment of human EGFR (amino acids R669 to A1210), expressed in Sf9 insect cells and purified via affinity chromatography using Glutathion Sepharose as described above, was used as kinase. As substrate for the kinase reaction the biotinylated peptide biotin-Ahx-[…] (C-terminus in amide form) was used which can be purchased e.g. form the company Biosynthan GmbH (Berlin-Buch, Germany).
For the assay 50 nl of a 100 fold concentrated solution of the test compound in DMSO was pipetted into either a black low volume 384 well microtiter plate or a black 1536 well microtiter plate (both Greiner Bio-One, Frickenhausen, Germany), 2 μL of a solution of EGFR in aqueous assay buffer [50 mM Hepes pH 7.0, 10 mM MgCl2, 1 mM dithiothreitol, 0.5 mM EGTA, 0.3 mM activated sodium ortho-vanadate, 0.005% (w/v) bovine serum albumin, 0.005% (v/v) Tween-20] were added and the mixture was incubated for 15 min at 22° C. to allow pre-binding of the test compounds to the enzyme before the start of the kinase reaction. […] The concentration of EGFR was adjusted depending of the activity of the enzyme lot and was chosen appropriate to have the assay in the linear range, typical concentration was 7.6 pg/μL. The reaction was stopped by the addition of 3 μL of a solution of HTRF detection reagents (83.3 nM streptavidine-XL665 [Cisbio Bioassays, Codolet, France] and 1.67 nM PT66-Tb-Cryptate, a terbium-cryptate labelled anti-phospho-tyrosine antibody from Cisbio Bioassays [instead of the PT66-Tb-cryptate PT66-Eu-Chelate from Perkin Elmer can also be used]) in an aqueous EDTA-solution (133.3 mM EDTA, 0.2% (w/v) bovine serum albumin in 50 mM HEPES pH 7.5).
The resulting mixture was incubated 1 h at 22° C. to allow the binding of the biotinylated phosphorylated peptide to the streptavidine-XL665 and the PT66-Tb-Cryptate. Subsequently the amount of phosphorylated substrate was evaluated by measurement of the resonance energy transfer from the PT66-Tb-Cryptate to the streptavidine-XL665. Therefore, the fluorescence emissions at 620 nm and 665 nm after excitation at 337 nm were measured in a HTRF reader, e.g. a Pherastar (BMG Labtechnologies, Offenburg, Germany) or a Viewlux (Perkin-Elmer). The ratio of the emissions at 665 nm and at 622 nm was taken as the measure for the amount of phosphorylated substrate.

[3] = EGFR Wildtyp 2 mM ATP IC50 [mol/l] (median), Table 4
[4] = read-out: EGFR Wildtyp 2 mM ATP IC50 [mol/l] (median), Table 4

Compound	IC50 [1]	IC50 [2, 3]	IC50 [2, 4]
O=C(Nc1cc(-c2[nH]c3c(Cl)ccnc3c2-c2ccccn2)ccn1)C(CC(F)F)c1ccc(F)cc1 (racemic) [Example 49, (2RS)—N-{4-[7-chloro-3-(pyridin-2-yl)-1H-pyrrolo[3,2-b]pyridin-2-yl]pyridin-2-yl}-4,4-difluoro-2-(4-fluorophenyl)butanamide]	3.64 nM	> 20000 nM	
O=C(Nc1cc(-c2[nH]c3ccc(F)nc3c2-c2cc(F)ccn2)ccn1)C(CC(F)F)c1ccc(F)cc1 (racemic) [Example 95, (2RS)-4,4-difluoro-N-{4-[5-fluoro-3-(4-fluoropyridin-2-yl)-1H-pyrrolo[3,2-b]pyridin-2-yl]pyridin-2-yl}-2-(4-fluorophenyl)butanamide]	5.62 nM	> 20000 nM	
CC(C)(O)c1cc(F)nc2c(-c3ccccn3)c(-c3ccnc(NC(=O)C(CC(F)F)c4ccc(F)cc4)c3)[nH]c12 (racemic) [Example 98, (2RS)-4,4-difluoro-N-{4-[5-fluoro-7-(2-hydroxypropan-2-yl)-3-(pyridin-2-yl)-1H-pyrrolo[3,2-b]pyridin-2-yl]pyridin-2-yl}-2-(4-fluorophenyl)butanamide]	7.36 nM	> 20000 nM	
O=C(Nc1cc(-c2[nH]c3cccnc3c2-c2ncccn2)ccn1)C(CC(F)F)c1ccc(F)cc1 (racemic) [Example 112, (2RS)-4,4-difluoro-2-(4-fluorophenyl)-N-[4-(3-pyrimidin-2-yl-1H-pyrrolo[3,2-b]pyridin-2-yl)-2-pyridyl]butanamide]	217 nM	> 20000 nM	
O=C(Nc1cc(-c2[nH]c3c(C4CCCO4)cc(F)nc3c2-c2ccccn2)ccn1)C(CC(F)F)c1ccc(F)cc1 (racemic) [Example 114, (2RS)-4,4-difluoro-2-(4-fluorophenyl)-N-(4-{5-fluoro-3-(pyridin-2-yl)-7-[(2RS)-tetrahydrofuran-2-yl]-1H-pyrrolo[3,2-b]pyridin-2-yl}pyridin-2-yl)butanamide]	37 nM	> 20000 nM	
O=C(Nc1cc(-c2[nH]c3nccnc3c2-c2ccccn2)ccn1)C(CC(F)(F)F)c1ccc(F)cc1 (racemic) [Example 119, (2RS)-4,4,4-trifluoro-2-(4-fluorophenyl)-N-{4-[7-(pyridin-2-yl)-5H-pyrrolo[2,3-b]pyrazin-6-yl]pyridin-2-yl}butanamide]	48.6 nM	> 20000 nM	
O=C(Nc1cc(-c2[nH]c3c(OCC(F)(F)F)ncnc3c2-c2ccccn2)ccn1)C(CC(F)F)c1ccc(F)cc1 (racemic) [Example 122, (2RS)-4,4-difluoro-2-(4-fluorophenyl)-N-{4-[7-(pyridin-2-yl)-4-(2,2,2-trifluoroethoxy)-5H-pyrrolo[3,2-d]pyrimidin-6-yl]pyridin-2-yl}butanamide]	29.9 nM	> 20000 nM	
O=C(Nc1cc(-c2[nH]c3c(OCC(F)(F)F)ncnc3c2-c2ccccn2)ccn1)C(CC(F)(F)F)c1ccc(F)cc1 (racemic) [Example 125, (2RS)-4,4,4-trifluoro-2-(4-fluorophenyl)-N-{4-[7-(pyridin-2-yl)-4-(2,2,2-trifluoroethoxy)-5H-pyrrolo[3,2-d]pyrimidin-6-yl]pyridin-2-yl}butanamide]	46.1 nM	> 20000 nM	
O=C(Nc1cc(-c2[nH]c3c(OCC4CC4)ncnc3c2-c2ccccn2)ccn1)C(CC(F)F)c1ccc(F)cc1 (racemic) [Example 128, (2RS)—N-{4-[4-(cyclopropylmethoxy)-7-(pyridin-2-yl)-5H-pyrrolo[3,2-d]pyrimidin-6-yl]pyridin-2-yl}-4,4-difluoro-2-(4-fluorophenyl)butanamide]	47.4 nM	11200 nM	
O=C(Nc1cc(-c2[nH]c3ccc(F)nc3c2-c2ccccn2)ccn1)[C@H](CC(F)F)c1ccc(F)cc1 (single isomer, unassigned) [Example 3]	849 nM	> 20000 nM	
Cc1ccc2[nH]c(-c3ccnc(NC(=O)C(CC(F)F)c4ccc(F)cc4)c3)c(-c3ccccn3)c2n1 (single isomer, unassigned) [Example 5, 4,4-difluoro-2-(4-fluorophenyl)-N-{4-[5-methyl-3-(pyridin-2-yl)-1H-pyrrolo[3,2-b]pyridin-2-yl]pyridin-2-yl}butanamide]	119 nM	> 20000 nM	
Cc1ccc2[nH]c(-c3ccnc(NC(=O)C(CC(F)F)c4ccc(F)cc4)c3)c(-c3ccccn3)c2n1 (single isomer, unassigned) [Example 6, 4,4-difluoro-2-(4-fluorophenyl)-N-{4-[5-methyl-3-(pyridin-2-yl)-1H-pyrrolo[3,2-b]pyridin-2-yl]pyridin-2-yl}butanamide]	2990 nM		> 20000 nM
Cc1cnc2c(-c3ccccn3)c(-c3ccnc(NC(=O)C(CC(F)F)c4ccc(F)cc4)c3)[nH]c2c1 (single isomer, unassigned) [Example 8, 4,4-difluoro-2-(4-fluorophenyl)-N-{4-[6-methyl-3-(pyridin-2-yl)-1H-pyrrolo[3,2-b]pyridin-2-yl]pyridin-2-yl}butanamide]	8.57 nM	> 20000 nM	
Cc1cnc2c(-c3ccccn3)c(-c3ccnc(NC(=O)C(CC(F)F)c4ccc(F)cc4)c3)[nH]c2c1 (single isomer, unassigned) [Example 9, 4,4-difluoro-2-(4-fluorophenyl)-N-{4-[6-methyl-3-(pyridin-2-yl)-1H-pyrrolo[3,2-b]pyridin-2-yl]pyridin-2-yl}butanamide]	945 nM		> 20000 nM
O=C(Nc1cc(-c2[nH]c3c(OCC(F)F)cc(F)nc3c2-c2ccccn2)ccn1)C(CC(F)F)c1ccc(F)cc1 (single isomer, unassigned) [Example 29, (2R or S)—N-{4-[7-(2,2-difluoroethoxy)-5-fluoro-3-(pyridin-2-yl)-1H-pyrrolo[3,2-b]pyridin-2-yl]pyridin-2-yl}-4,4-difluoro-2-(4-fluorophenyl)butanamide]	3.31 nM	> 20000 nM	
O=C(Nc1cc(-c2[nH]c3c(OCC(F)F)cc(F)nc3c2-c2ccccn2)ccn1)C(CC(F)F)c1ccc(F)cc1 (single isomer, unassigned) [Example 30, (2R or S)—N-{4-[7-(2,2-difluoroethoxy)-5-fluoro-3-(pyridin-2-yl)-1H-pyrrolo[3,2-b]pyridin-2-yl]pyridin-2-yl}-4,4-difluoro-2-(4-fluorophenyl)butanamide]	8.84 nM		> 20000 nM
O=C(Nc1cc(-c2[nH]c3nccnc3c2-c2ccccn2)ccn1)[C@@H](CC(F)F)c1ccc(F)cc1 (single isomer, unassigned) [Example 32]	1.37 nM	> 20000 nM	
Cc1cc2[nH]c(-c3ccnc(NC(=O)C(CC(F)F)c4ccc(F)cc4)c3)c(-c3ccccn3)c2nc1F (single isomer, unassigned) [Example 34, 4,4-difluoro-N-{4-[5-fluoro-6-methyl-3-(pyridin-2-yl)-1H-pyrrolo[3,2-b]pyridin-2-yl]pyridin-2-yl}-2-(4-fluorophenyl)butanamide]	3.79 nM	> 20000 nM	
Cc1cc2[nH]c(-c3ccnc(NC(=O)C(CC(F)F)c4ccc(F)cc4)c3)c(-c3ccccn3)c2nc1F (single isomer, unassigned) [Example 35, 4,4-difluoro-N-{4-[5-fluoro-6-methyl-3-(pyridin-2-yl)-1H-pyrrolo[3,2-b]pyridin-2-yl]pyridin-2-yl}-2-(4-fluorophenyl)butanamide]	2.69 nM		> 20000 nM
O=C(Nc1cc(-c2[nH]c3c(OC4CC4)cc(F)nc3c2-c2ccccn2)ccn1)C(CC(F)F)c1ccc(F)cc1 (single isomer, unassigned) [Example 43, N-{4-[7-(cyclopropyloxy)-5-fluoro-3-(pyridin-2-yl)-1H-pyrrolo[3,2-b]pyridin-2-yl]pyridin-2-yl}-4,4-difluoro-2-(4-fluorophenyl)butanamide]	10.2 nM	> 20000 nM	
